Measured values taken from US12433872B2, “Treatment of Acanthamoeba or Balamuthia trophozoites and/or cysts” (GEORGIA STATE UNIVERSITY RESEARCH FOUNDATION, INC., priority 2018, dated 2025).
Read-outs that look alike come from different tables or passages of the source.

Key:
Format in all cases: cell-based
[1] = test system: Acanthamoeba culbertsoni (ATCC30171) cysts; assay: Encystation drug susceptibility / excystation viability assay, 30 day recovery, A. culbertsoni cysts; conditions: ATCC30171, 720 h, read-out: A. culbertsoni 30 day MCC
Description: (§1) The trophozoites of Acanthamoeba were harvested by mechanical detachment and collected via centrifugation at 4000 rpm at 4° C. for 5 minutes. The trophozoites were washed in 10 mL of Neff's Encystment Media (NEM). NEM composition is 20 mM Tris-HCL [pH 8.8] (2.43 g/L), 100 mM KCL (7.46 g/L), 8 mM MgSO4 (962.96 mg/L), 0.4 mM CaCL2 58.81 mg/L) and 1 mM NaHCO3 (84.01 mg/L) (Neff et al. 1964). All reagents were bought from Sigma Aldrich. Centrifugation of the trophozoites was repeated to ensure any residual growth medium was removed. The pellet was resuspended in a final volume of 15 mL of NEM, cultured in 75 cm^2 corning tissue culture flasks and incubated vertically in a thermal shaker, shaken at 100 rpm at 37° C. for 72 hours to produce fully matured cysts. NEM was supplemented with 250 μg of penicillin/streptomycin. Fresh cysts were produced each time for any experimentation.
(§2) At 72 hours the cysts were harvested using a cell scraper and collected via centrifugation at 4000 rpm at 25° C. for 10 minutes. The cells were washed twice in 10 mL of HyClone™ water, Molecular Biology Grade, and centrifugation was repeated to ensure the removal of any residual NEM. The cell suspension was washed with 0.5% sodium dodecyl sulphate (SDS) to remove any remaining trophozoites and immature cysts. The fully mature cysts were further washed twice with 10 mL of HyClone™ water and 1% NEM, centrifugation was repeated to remove any residue of SDS. The concentration of mature cysts was determined using a haemocytometer and adjusted to 1×10^4 cysts/mL in NEM.
(§3) All test compounds were prepared as 5 mg/mL stock solutions in dimethylsulfoxide (DMSO). All compounds were diluted in NEM, serially diluted in 2-fold dilutions 6 or 11 times, yielding a screening concentration range of 1.56 μg/mL to 50 μg/mL or 48 ng/mL to 50 μg/mL with a final highest screening concentration of 1% DMSO.
(§4) Based on this, a strain specific test period and also a 30 day non-specific recovery time were considered. For the 30 day recovery period, the media was changed 5 times to ensure the contents of wells dis not evaporate and have an effect within the results of the assay.
(§5) 90 μL of 1×10^4 Cysts/ml and 10 μL of experimental compounds from the screening plates were produced according to the protocols above and combined into a Corning clear 96 well treated tissue culture plate. Control wells include cysts in non-drug treated, 1% DMSO, NEM (to be used for negative growth control), NEM Blank, PG blank and cysts in non-drug treated, 1% DMSO, PG (to excyst cells and to be used for positive growth control). The total well volume for all wells was 100 μL. The drug exposed plates were screened at 27° C. for 6 or 24 hours only. At the exposure time point the plates were centrifuged at 4000 rpm at 25° C. for 10 minutes and washed twice with phosphate-buffered saline (PBS) to remove any residual experimental compound.
(§6) Once the plate(s) underwent the Encystation drug susceptibility process, all wells except the negative growth control and NEM blank wells received PG growth medium. All plates were left to recover at 27° C. for the strain specific time period of 5, 9 or 11 days depending on the species of Acanthamoeba. At each of the strain specific time points the plates were removed from incubation and microscopically analysed (qualitatively) for the excystation process for the emergence of excysted viable trophozoites or residual cysts. The presence of excysted trophozoites indicated viable amoebae (non-cystistatic or cysticidal—no effect) and the absence of excystation was considered as cystistatic/cysticidal effects.

[2] = test system: A549 cells; assay: Toxicity to human A549 cells
[3] = test system: Acanthamoeba castellanii (ATCC50370) cysts; assay: Encystation drug susceptibility / excystation viability assay, 30 day recovery, A. castellanii cysts; conditions: ATCC50370, 720 h, read-out: A. castellanii 30 day MCC
Description: as §1, §2, §3, §4, §5, §6

[4] = test system: Acanthamoeba castellanii trophozoites; assay: Activity against Acanthamoeba castellanii trophozoites
Description: Two Acanthamoeba species (Acanthamoeba castellanii—ATCC50370 and Acanthamoeba culbertsoni—ATCC30171) were bought from the American Type Culture Collection (ATCC) and one species (Acanthamoeba healyi) was donated from the Centers for Disease Control and Prevention (CDC) for our experimentations. Trophozoites were thawed and grown in 10 mL of a nutrient rich Peptose-Glucose (PG) media. The PG media composition is 83.26 mM Glucose (15 g/L), Protease Peptone (15 g/L, yeast extract is manufactured under controlled conditions to retain its vitamin content and other nutritive values such as free amino acids, no other composition information given), 2.2 mM KH2PO4 (300 mg/L), 2.97 μM Thiamine (1 mg/L), 99.86 μM L-methionine (14.9 mg/L), 4.6 μM Vitamin B12 (83.3 μl of 0.1 mg/mL stock/L) and 68 μM Biotin (83.3 μl of 0.2 mg/mL stock/L). […] One mL/L of the salt solution was added to the media stock prior to autoclaving. All reagents were purchased from Sigma Aldrich except the Glucose which was purchased from Alfa Aesar. The cell pellet was resuspended in a final volume of 10 mL of PG media, cultured in 75 cm^2 coming tissue culture flasks and incubated at 27° C. PG was supplemented with 125 μg of penicillin/streptomycin. Sub-culturing occurred twice per week to allow the continued growth and development of the Acanthamoeba trophozoites. […]

[5] = test system: Acanthamoeba healyi cysts; assay: Encystation drug susceptibility / excystation viability assay, 30 day recovery, A. healyi cysts; conditions: 720 h, read-out: A. healyi 30 day MCC
Description: as §1, §2, §3, §4, §5, §6

[6] = test system: Balamuthia mandrillaris trophozoites; assay: Activity against Balamuthia mandrillaris trophozoites; conditions: for IC50: Balamuthia mandrillaris
Description: Balamuthia mandrillaris trophozoites were thawed and grown in 10 ml of BM-3 medium. […] After autoclaving, complete BM-3 media was produced by the addition of 10% fetal bovine serum and 125 μg of penicillin/streptomycin antibiotics. The table describes all of the compounds and the activity against Balamuthia trophozoites compared to the activity for select Acanthamoeba trophozoites shown in Table 5.

[7] = minimum cysticidal concentration, no recovery up to 30 days
[8] = human A549 cells, read-out: A549 cell IC50
[9] = trophozoites, n = 2, Table 6, read-out: Acanthamoeba castellanii IC50
[10] = trophozoites, n = 2, read-out: Balamuthia mandrillaris IC50
[11] = Homo sapiens, A549, read-out: A549 cell IC50
[12] = read-out: A. cactellanii Trophozoite IC50
[13] = read-out: Acanthamoeba castellanii IC50
[14] = read-out: Balamuthia mandrillaris IC50

For CC(C)NC(=N)c1ccc2nc(-c3ccc(Oc4ccc(-c5nc6ccc(C(=N)NC(C)C)cc6[nH]5)cc4Cl)c(Cl)c3)[nH]c2c1 [P, 2,2′-(Oxybis(3-chloro-4,1-phenylene))bis(N-isopropyl-1H-benzo[d]imidazole-6-carboximidamide)], the MCC [1, 7] was 20 µM, the IC50 [2, 8] was 4910 nM and the MCC [3, 7] was 18 µM. It also gave an IC50 [4, 9] of 810 nM, an MCC [5, 7] of 9.99 µM and an IC50 [6, 10] of 180 nM.

CC(C)NC(=N)c1ccc2nc(-c3ccc(Oc4ccc(-c5nc6ccc(C(=N)NC(C)C)cc6[nH]5)c(Br)c4)cc3F)[nH]c2c1 [Compound E, 2-(2-Bromo-4-(3-fluoro-4-(6-(N-isopropylcarbamimidoyl)-1H-benzo[d]imidazol-2-yl)phenoxy)phenyl)-N-isopropyl-1H-benzo[d]imidazole-6-carboximidamide] showed an MCC [1] of 1.83 µM, an IC50 [2, 11] of 3790 nM and an MCC [3] of 2.75 µM. It also gave an IC50 [4, 12] of 220 nM, an IC50 [4, 13] of 770 nM and an MCC [5] of 1.83 µM. For the same molecule, the IC50 [6, 14] was 110 nM.

In the case of COc1cc(Oc2c(F)cc(-c3nc4ccc(C(=N)NC(C)C)cc4[nH]3)cc2F)ccc1-c1nc2ccc(C(=N)NC(C)C)cc2[nH]1 [Compound A, 2-(3,5-Difluoro-4-(4-(6-(N-isopropylcarbamimidoyl)-1H-benzo[d]imidazol-2-yl)-3-methoxyphenoxy)phenyl)-N-isopropyl-1H-benzo[d]imidazole-6-carboximidamide], the MCC [1] is reported as 7.9 µM, the IC50 [2, 11] is reported as 32700 nM and the MCC [3] is reported as 47.4 µM. For the same molecule, the IC50 [4, 12] was 1190 nM, the IC50 [4, 13] was 1190 nM and the MCC [5] was 7.9 µM. The “times more potent than pentamide as reported in Schuster et al.” value ([6]; B. mandrillaris, versus pentamidine 29.38 μM) was 48.9, the IC50 [6, 14] was 600 nM and the IC50 ([6]; read-out: IC50 against B. mandrillaris) was 600 nM.

Molecule CC(C)NC(=N)c1ccc2nc(-c3ccc(Oc4ccc(-c5nc6ccc(C(=N)NC(C)C)cc6[nH]5)c(Br)c4)cc3)[nH]c2c1 [M, 2-(2-Bromo-4-(4-(6-(N-isopropylcarbamimidoyl)-1H-benzo[d]imidazol-2-yl)phenoxy)phenyl)-N-isopropyl-1H-benzo[d]imidazole-6-carboximidamide] has an MCC [1, 7] of 5.7 µM, an IC50 [2, 8] of 3920 nM and an MCC [3, 7] of 2.85 µM. The IC50 [4, 9] was 390 nM, the MCC [5, 7] was 3.8 µM and the IC50 [6, 10] was 80 nM.

N=C(N)c1ccc(-c2ccc(-c3cc4cc(C(=N)N)ccc4[nH]3)cc2)cc1 [Compound AW] was tested, and the IC50 [4, 13] was 13700 nM and the IC50 [6, 14] was 350 nM.

For CC(C)NC(=N)c1ccc2nc(-c3ccc(Oc4ccc(-c5nc6ccc(C(=N)NC(C)C)cc6[nH]5)c(F)c4)c(Br)c3)[nH]c2c1 [Compound AF, 2-(3-Bromo-4-(3-fluoro-4-(6-(N-isopropylcarbamimidoyl)-1H-benzo[d]imidazol-2-yl)phenoxy)phenyl)-N-isopropyl-1H-benzo[d]imidazole-6-carboximidamide], the IC50 [4, 9] was 750 nM and the IC50 [6, 10] was 130 nM.

Molecule CC(C)NC(=N)c1ccc2nc(-c3ccc(Oc4ccc(-c5nc6ccc(C(=N)NC(C)C)cc6[nH]5)c(C(F)(F)F)c4)cc3)[nH]c2c1 [Compound AH] has an IC50 [4, 13] of 1890 nM and an IC50 [6, 14] of 90 nM.

COc1ccc(-c2nc3ccc(-c4nc5ccc(C(=N)NC6CCC6)cc5[nH]4)cc3[nH]2)cc1O [Compound AS] was tested, and the IC50 [4, 9] was 2400 nM and the IC50 [6, 10] was 280 nM.

Work on N=C(N)c1ccc(-c2ccc(C(=O)Nc3cccc(C(=N)N)c3)cc2)cc1 [Compound AV] yielded an IC50 [4, 9] of 370 nM and an IC50 [6, 10] of 680 nM.

CC(C)NC(=N)c1ccc2nc(-c3ccc(Oc4ccc(-c5nc6ccc(C(=N)NC(C)C)cc6[nH]5)cc4)cc3)[nH]c2c1 [Compound AZ] gave an IC50 [4, 9] of 550 nM and an IC50 [6, 10] of 40 nM.

COc1cc(Oc2ccc(-c3nc4ccc(C(=N)NC(C)C)cc4[nH]3)cc2)ccc1-c1nc2ccc(C(=N)NC(C)C)cc2[nH]1 [AI] gave an IC50 [4, 13] of 2920 nM and an IC50 [6, 14] of 70 nM.

With CC(C)NC(=N)c1ccc2nc(-c3ccc(CCc4ccc(-c5nc6ccc(C(=N)NC(C)C)cc6[nH]5)cc4)cc3)[nH]c2c1 [BC] the IC50 [4, 9] was over 67800 nM and the IC50 [6, 10] was 250 nM.

Molecule N=C(C1=NCCCN1)c1ccc2nc(-c3ccc4nc(-c5ccccc5)[nH]c4c3)[nH]c2c1 [AL, (2′-phenyl-1H,3′H-[2,5′-bibenzo[d]imidazol]-6-yl)(1,4,5,6-tetrahydropyrimidin-2-yl)methanimine] has an IC50 [4, 9] of 2330 nM and an IC50 [6, 10] of 280 nM.

Molecule COc1ccc(-c2nc3ccc(-c4nc5ccc(C6=NCC(C)(C)CN6)cc5[nH]4)cc3[nH]2)cc1O [Compound AR, 5-(6-(5,5-dimethyl-1,4,5,6-tetrahydropyrimidin-2-yl)-1H,3′H-[2,5′-bibenzo[d]imidazol]-2′-yl)-2-methoxyphenol] has an IC50 [4, 9] of 2010 nM and an IC50 [6, 10] of 660 nM.

In the case of N=C(N)c1ccc2nc(-c3ccc4nc(-c5ccc(C(N)=O)cc5)[nH]c4c3)[nH]c2c1 [AP, 4-(6-carbamimidoyl-1H,3′H-[2,5′-bibenzo[d]imidazol]-2′-yl)benzamide], the IC50 [4, 13] is reported as 47600 nM and the IC50 [6, 14] is reported as 400 nM.

For COc1cc(-c2nc3ccc(C(=N)NC(C)C)cc3[nH]2)ccc1Oc1c(F)cc(-c2nc3ccc(C(=N)NC(C)C)cc3[nH]2)cc1F [Compound AB, 2-(3,5-Difluoro-4-(4-(6-(N-isopropylcarbamimidoyl)-1H-benzo[d]imidazol-2-yl)-2-methoxyphenoxy)phenyl)-N-isopropyl-1H-benzo[d]imidazole-6-carboximidamide], the IC50 [4, 9] was 1440 nM and the IC50 [6, 10] was 260 nM.

CC(C)NC(=N)c1ccc2nc(-c3ccc(N(c4ccccc4)c4ccc(-c5nc6ccc(C(=N)NC(C)C)cc6[nH]5)cc4)cc3)[nH]c2c1 [BG] gave an IC50 [4, 9] of 3100 nM and an IC50 [6, 10] of 470 nM.

In the case of CC(C)NC(=N)c1ccc2nc(-c3ccc(Oc4c(F)cc(-c5nc6ccc(C(=N)NC(C)C)cc6[nH]5)cc4F)c(F)c3)[nH]c2c1 [AC, 2-(3,5-Difluoro-4-(2-fluoro-4-(6-(N-isopropylcarbamimidoyl)-1H-benzo[d]imidazol-2-yl)phenoxy)phenyl)-N-isopropyl-1H-benzo[d]imidazole-6-carboximidamide], the IC50 [4, 9] is reported as 1030 nM and the IC50 [6, 10] is reported as 390 nM.
